The source of these data is ChEMBL document CHEMBL3425500, “Perspective: Tyrosine phosphatases as novel targets for antiplatelet therapy” (Bioorg Med Chem, 2015).

Assay [1] deals with Dual specificity protein phosphatase 3 (Homo sapiens, UniProt P51452). Description: Inhibition of recombinant VHR (unknown origin) using OMFP as substrate after 1 hr by fluorescence assay.
In assay [2] the target is T1, Tyrosine-protein phosphatase non-receptor type 2 (Homo sapiens, UniProt P17706).
T1 sequence (P17706 whole entry): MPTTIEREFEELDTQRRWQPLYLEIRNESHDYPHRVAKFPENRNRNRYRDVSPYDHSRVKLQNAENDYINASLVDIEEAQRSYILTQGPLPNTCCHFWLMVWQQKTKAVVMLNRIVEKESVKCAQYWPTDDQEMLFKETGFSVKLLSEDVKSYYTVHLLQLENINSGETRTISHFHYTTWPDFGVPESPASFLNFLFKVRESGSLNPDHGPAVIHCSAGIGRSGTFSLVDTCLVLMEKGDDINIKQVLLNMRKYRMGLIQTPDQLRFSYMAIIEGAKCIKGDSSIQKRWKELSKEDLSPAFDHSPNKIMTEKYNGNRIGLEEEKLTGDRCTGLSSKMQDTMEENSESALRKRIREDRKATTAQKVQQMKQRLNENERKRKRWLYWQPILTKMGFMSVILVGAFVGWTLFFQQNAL
Put plainly: Inhibition of recombinant TCPTP (unknown origin) using OMFP as substrate after 1 hr by fluorescence assay.

Assay [3] deals with T2, Receptor-type tyrosine-protein phosphatase C (Homo sapiens, UniProt P08575).
T2 sequence (P08575 whole entry): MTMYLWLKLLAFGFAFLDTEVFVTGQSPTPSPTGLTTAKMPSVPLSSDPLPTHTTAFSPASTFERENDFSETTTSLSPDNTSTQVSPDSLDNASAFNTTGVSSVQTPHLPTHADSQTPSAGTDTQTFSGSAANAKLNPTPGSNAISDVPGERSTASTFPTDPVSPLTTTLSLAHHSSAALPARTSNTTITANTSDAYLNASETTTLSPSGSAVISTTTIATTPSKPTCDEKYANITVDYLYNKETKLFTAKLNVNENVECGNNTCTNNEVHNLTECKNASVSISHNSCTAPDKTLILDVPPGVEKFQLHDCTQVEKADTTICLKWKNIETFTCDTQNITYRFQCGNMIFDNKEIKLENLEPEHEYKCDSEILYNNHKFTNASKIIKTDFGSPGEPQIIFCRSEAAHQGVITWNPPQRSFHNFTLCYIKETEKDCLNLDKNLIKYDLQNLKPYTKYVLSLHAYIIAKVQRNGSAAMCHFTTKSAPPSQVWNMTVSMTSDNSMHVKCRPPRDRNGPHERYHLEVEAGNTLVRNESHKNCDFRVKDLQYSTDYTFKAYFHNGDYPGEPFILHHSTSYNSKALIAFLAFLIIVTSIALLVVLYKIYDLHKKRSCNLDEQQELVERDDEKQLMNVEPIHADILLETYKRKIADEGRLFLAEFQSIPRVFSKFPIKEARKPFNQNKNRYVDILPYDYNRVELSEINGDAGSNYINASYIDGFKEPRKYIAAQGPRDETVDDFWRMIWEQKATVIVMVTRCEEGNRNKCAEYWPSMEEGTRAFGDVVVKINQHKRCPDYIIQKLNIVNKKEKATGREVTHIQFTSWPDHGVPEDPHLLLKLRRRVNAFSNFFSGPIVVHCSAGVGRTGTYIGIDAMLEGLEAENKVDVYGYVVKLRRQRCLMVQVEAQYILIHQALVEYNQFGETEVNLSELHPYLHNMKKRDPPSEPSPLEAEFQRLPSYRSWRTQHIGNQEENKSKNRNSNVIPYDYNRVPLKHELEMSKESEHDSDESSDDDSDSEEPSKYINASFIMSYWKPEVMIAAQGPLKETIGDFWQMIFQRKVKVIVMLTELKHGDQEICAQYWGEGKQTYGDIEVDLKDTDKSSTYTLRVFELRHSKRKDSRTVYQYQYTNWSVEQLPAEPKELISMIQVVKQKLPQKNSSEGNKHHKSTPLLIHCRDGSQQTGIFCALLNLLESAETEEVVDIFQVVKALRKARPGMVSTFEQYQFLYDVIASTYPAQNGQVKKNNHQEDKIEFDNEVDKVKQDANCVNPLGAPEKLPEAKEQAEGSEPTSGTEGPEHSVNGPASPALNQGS
Description: Inhibition of recombinant CD45 (unknown origin) using OMFP as substrate after 1 hr by fluorescence assay.

The target in assay [4] is T3, Receptor-type tyrosine-protein phosphatase R (Homo sapiens, UniProt Q15256).
T3 sequence (Q15256 whole entry): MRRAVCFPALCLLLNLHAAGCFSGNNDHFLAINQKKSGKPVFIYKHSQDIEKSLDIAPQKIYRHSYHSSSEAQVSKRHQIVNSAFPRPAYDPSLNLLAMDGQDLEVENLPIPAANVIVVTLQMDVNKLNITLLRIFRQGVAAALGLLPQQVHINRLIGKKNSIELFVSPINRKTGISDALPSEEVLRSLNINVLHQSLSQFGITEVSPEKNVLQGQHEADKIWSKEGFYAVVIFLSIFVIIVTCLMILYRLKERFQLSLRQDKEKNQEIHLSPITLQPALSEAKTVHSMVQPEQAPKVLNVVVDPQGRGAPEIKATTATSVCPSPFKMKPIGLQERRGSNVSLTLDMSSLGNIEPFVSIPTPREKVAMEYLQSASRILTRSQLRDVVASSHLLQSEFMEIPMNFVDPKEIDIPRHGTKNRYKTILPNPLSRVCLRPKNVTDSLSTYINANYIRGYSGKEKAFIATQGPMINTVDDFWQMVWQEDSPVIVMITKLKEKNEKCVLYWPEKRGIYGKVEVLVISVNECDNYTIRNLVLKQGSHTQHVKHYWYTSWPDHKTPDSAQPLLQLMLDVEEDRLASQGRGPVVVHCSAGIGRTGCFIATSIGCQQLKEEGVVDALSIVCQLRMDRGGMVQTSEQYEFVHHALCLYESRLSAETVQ
Description: Inhibition of recombinant PTP-SL (unknown origin) using OMFP as substrate after 1 hr by fluorescence assay.

Assay [5] deals with T4, Tyrosine-protein phosphatase non-receptor type 22 (Homo sapiens, UniProt Q9Y2R2).
T4 sequence (Q9Y2R2 whole entry): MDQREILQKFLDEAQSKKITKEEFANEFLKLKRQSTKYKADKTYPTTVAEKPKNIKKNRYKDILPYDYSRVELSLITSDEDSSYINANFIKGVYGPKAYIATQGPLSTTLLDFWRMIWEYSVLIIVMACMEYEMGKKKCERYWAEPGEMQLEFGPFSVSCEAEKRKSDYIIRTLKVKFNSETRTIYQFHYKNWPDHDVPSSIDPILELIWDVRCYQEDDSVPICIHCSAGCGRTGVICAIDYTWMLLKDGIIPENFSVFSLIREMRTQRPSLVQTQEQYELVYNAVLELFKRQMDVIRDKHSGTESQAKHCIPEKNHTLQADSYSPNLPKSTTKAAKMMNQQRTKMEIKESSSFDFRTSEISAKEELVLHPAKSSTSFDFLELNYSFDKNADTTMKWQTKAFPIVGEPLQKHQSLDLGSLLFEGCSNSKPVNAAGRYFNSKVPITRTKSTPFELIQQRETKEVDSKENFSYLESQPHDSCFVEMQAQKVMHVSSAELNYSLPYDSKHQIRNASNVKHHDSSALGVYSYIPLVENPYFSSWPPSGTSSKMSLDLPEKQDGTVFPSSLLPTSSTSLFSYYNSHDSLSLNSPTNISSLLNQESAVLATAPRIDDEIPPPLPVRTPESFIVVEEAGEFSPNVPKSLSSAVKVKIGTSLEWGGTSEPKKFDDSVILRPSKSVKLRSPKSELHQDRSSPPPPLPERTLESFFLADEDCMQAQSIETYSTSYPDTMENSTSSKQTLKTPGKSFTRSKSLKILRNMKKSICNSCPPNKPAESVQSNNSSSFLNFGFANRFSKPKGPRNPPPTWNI
Description: Inhibition of recombinant LYP (unknown origin) using OMFP as substrate after 1 hr by fluorescence assay.

For assay [6], the target named is Receptor-type tyrosine-protein phosphatase F (Homo sapiens, UniProt P10586). Description: Inhibition of recombinant LAR (unknown origin) using OMFP as substrate after 1 hr by fluorescence assay.
Assay [7] concerns the target T5, Dual specificity protein phosphatase 6 (Homo sapiens, UniProt Q16828).
T5 sequence (Q16828 whole entry): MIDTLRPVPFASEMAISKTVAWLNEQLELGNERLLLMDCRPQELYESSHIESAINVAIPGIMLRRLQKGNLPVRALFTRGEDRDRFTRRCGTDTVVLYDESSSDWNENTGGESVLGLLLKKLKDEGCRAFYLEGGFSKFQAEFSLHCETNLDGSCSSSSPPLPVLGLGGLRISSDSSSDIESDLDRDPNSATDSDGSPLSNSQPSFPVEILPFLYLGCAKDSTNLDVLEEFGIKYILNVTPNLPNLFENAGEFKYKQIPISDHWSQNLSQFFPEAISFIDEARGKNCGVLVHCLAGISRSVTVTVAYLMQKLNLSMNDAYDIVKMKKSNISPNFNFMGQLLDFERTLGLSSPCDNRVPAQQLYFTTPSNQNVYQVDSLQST
Description: Inhibition of recombinant MKP3 (unknown origin) using OMFP as substrate after 1 hr by fluorescence assay.

In assay [8] the target is T6, Tyrosine-protein phosphatase non-receptor type 7 (Homo sapiens, UniProt P35236).
T6 sequence (P35236 whole entry): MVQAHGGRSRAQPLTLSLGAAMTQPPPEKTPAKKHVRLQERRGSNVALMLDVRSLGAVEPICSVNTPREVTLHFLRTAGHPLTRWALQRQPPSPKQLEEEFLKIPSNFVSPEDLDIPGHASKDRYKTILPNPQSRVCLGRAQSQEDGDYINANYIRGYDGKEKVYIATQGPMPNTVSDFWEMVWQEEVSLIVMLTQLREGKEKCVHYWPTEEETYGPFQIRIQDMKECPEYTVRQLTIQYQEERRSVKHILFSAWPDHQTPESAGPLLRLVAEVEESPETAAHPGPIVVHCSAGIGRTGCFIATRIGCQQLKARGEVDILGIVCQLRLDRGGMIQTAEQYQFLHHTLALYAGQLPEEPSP
Put plainly: Inhibition of recombinant HePTP (unknown origin) using OMFP as substrate after 1 hr by fluorescence assay.

Assay [9] has as its target T7, Tyrosine-protein phosphatase non-receptor type 1 (Homo sapiens, UniProt P18031).
T7 sequence (P18031 whole entry): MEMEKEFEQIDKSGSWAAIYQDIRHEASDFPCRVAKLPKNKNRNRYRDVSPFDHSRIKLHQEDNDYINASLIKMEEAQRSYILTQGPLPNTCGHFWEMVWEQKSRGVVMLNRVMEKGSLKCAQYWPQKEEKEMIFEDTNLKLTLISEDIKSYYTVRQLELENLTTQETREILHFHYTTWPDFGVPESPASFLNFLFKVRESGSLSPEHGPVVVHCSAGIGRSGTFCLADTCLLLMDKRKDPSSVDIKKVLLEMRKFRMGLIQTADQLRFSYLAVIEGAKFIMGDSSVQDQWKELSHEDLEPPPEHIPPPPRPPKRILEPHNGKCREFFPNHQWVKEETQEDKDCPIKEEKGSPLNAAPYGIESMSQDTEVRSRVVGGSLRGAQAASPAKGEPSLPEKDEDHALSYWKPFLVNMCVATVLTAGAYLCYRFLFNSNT
Put plainly: Inhibition of recombinant PTP1B (unknown origin) using OMFP as substrate after 1 hr by fluorescence assay.

Assay [10] deals with T8, Dual specificity protein phosphatase 22 (Homo sapiens, UniProt Q9NRW4).
T8 sequence (Q9NRW4 whole entry): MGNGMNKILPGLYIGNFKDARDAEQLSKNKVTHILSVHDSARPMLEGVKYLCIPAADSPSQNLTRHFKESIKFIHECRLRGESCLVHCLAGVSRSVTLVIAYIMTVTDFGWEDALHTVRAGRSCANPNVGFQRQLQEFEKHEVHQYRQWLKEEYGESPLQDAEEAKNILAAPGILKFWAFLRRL
Put plainly: Inhibition of recombinant VHX (unknown origin) using OMFP as substrate after 1 hr by fluorescence assay.

Assay [11] deals with T9, Tyrosine-protein phosphatase non-receptor type 5 (Homo sapiens, UniProt P54829).
T9 sequence (P54829 whole entry): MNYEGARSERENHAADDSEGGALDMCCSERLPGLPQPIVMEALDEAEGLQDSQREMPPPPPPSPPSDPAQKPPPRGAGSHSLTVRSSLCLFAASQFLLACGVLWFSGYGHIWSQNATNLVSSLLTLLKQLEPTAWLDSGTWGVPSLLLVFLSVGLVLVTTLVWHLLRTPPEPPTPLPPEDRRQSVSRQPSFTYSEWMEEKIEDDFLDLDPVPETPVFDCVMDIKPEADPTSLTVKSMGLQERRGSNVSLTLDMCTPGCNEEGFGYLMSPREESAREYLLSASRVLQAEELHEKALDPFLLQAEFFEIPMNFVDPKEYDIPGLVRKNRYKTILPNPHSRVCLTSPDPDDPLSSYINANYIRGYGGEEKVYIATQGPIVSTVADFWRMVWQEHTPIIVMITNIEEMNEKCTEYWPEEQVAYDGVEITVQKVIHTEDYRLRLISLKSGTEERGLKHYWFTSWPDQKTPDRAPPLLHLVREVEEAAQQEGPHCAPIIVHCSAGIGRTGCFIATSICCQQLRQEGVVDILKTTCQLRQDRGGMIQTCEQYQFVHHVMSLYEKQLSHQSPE
Put plainly: Inhibition of recombinant STEP (unknown origin) using OMFP as substrate after 1 hr by fluorescence assay.

For assay [12], the target named is T7, Tyrosine-protein phosphatase non-receptor type 1. Description: Competitive inhibition of PTP1B (unknown origin).
Assay [13] has the same target. Description: Inhibition of recombinant human PTP1B assessed as hydrolysis of DiFMUP preincubated for 10 mins followed by DiFMUP addition measured after 5 mins by fluorescence assay.

Sequence of Receptor-type tyrosine-protein phosphatase F (P10586 whole entry): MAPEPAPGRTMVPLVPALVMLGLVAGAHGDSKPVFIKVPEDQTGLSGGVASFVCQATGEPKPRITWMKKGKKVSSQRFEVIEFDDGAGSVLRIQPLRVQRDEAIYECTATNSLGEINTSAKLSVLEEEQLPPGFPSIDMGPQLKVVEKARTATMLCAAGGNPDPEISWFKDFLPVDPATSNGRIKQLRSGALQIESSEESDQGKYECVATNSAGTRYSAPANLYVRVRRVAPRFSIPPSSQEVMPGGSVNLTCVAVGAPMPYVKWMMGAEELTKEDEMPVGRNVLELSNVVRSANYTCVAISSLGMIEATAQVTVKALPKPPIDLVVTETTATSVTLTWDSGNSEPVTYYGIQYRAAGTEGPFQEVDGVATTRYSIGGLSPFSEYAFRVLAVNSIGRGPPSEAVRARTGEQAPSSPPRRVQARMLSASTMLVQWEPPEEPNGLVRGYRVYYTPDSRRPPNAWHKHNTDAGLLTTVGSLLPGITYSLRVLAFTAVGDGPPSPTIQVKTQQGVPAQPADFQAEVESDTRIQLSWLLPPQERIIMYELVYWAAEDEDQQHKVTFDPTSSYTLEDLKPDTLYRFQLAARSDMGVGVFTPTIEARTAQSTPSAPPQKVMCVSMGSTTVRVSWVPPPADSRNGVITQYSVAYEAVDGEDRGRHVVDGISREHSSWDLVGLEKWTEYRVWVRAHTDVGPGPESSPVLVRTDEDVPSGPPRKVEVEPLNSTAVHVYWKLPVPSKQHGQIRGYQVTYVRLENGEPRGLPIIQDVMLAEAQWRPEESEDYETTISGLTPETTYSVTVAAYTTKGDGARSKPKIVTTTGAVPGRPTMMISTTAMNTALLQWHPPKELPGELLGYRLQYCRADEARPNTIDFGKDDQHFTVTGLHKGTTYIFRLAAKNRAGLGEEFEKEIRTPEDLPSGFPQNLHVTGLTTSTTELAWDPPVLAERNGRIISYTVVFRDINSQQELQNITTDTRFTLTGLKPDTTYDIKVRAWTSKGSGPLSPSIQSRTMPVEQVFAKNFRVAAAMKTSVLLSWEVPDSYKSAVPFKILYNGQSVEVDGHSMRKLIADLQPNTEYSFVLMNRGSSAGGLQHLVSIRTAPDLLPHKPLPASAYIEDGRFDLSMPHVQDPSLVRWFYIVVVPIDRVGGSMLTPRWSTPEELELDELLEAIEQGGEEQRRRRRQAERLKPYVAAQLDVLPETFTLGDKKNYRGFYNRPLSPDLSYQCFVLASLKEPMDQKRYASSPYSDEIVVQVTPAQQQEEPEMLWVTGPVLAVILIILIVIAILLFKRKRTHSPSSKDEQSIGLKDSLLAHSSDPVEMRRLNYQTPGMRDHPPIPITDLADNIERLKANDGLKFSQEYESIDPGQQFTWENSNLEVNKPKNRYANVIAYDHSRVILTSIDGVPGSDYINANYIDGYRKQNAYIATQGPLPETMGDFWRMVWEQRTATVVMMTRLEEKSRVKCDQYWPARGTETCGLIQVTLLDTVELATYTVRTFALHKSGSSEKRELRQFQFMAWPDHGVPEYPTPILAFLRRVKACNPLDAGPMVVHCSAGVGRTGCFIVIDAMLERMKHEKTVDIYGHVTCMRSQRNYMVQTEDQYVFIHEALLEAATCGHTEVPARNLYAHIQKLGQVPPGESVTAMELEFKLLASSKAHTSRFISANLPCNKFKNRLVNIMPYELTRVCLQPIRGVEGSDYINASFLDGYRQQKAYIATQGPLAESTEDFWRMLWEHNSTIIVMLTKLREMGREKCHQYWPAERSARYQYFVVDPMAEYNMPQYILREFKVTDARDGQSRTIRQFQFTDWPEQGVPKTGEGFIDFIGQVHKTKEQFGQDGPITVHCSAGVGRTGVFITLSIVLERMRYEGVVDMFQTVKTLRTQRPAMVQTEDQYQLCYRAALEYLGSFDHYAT
Sequence of Dual specificity protein phosphatase 3 (P51452 whole entry): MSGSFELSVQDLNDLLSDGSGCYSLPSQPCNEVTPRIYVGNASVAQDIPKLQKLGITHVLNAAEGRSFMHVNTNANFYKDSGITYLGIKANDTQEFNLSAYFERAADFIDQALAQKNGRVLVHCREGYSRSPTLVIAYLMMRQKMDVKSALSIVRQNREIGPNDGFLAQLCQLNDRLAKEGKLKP

For orientation: IC50 means the concentration needed to halve the response being measured. On to `COc1ccc(-c2nnc(Nc3nc4c(OC)cccc4s3)o2)cc1`, for which, in assay [1], the IC50 was 2.68 µM.

For `COc1ccc(-c2nnc(Nc3nc4c(F)cccc4s3)o2)cc1`, the IC50 in assay [2] was 55 µM; in assay [3], above 100 µM; in assay [4] it was 13 µM; in assay [5] it was 49 µM; in [6], above 100 µM; in [7], above 100 µM. Moreover, the IC50 in assay [8] was 38 µM; in assay [9], above 100 µM; in assay [10] it was 26 µM; in [11], above 100 µM.

By Ki is commonly meant a dissociation constant, usually derived from enzyme kinetics or from competition with a known ligand. A higher Ki goes with lower affinity. Regarding `CCCCCCCCCCCCCCC(=O)N[C@@H](Cc1ccc(C(F)(F)P(=O)(O)O)cc1)C(=O)N[C@@H](CC(=O)O)C(=O)N[C@@H](Cc1ccc(C(F)(F)P(=O)(O)O)cc1)C(N)=O`, the affinity in assay [12] corresponds to a Ki of 0.026 µM.

For the molecule `CN1C(=O)/C(=C\c2ccc(OCc3ccc(C4CCCCC4)cc3)cc2)S/C1=N/c1ccc(CC(=O)O)cc1`, the IC50 in [13] was 0.24 µM.
